From patent US11613522B2, “Herbicidally active 3-phenylisoxazoline-5-carboxamides of tetrahydro- and dihydrofurancarboxamides” (BAYER AKTIENGESELLSCHAFT, priority 2017, dated 2023)

Key:
Format in all cases: in vivo
Stellaria media [1] = assay: Pre-emergence herbicidal activity against STEME; conditions: Stellaria media, 504 h, dosage 80 g/ha, scored visually after about 3 weeks vs untreated controls
Source text: (§1) 1. Pre-emergence herbicidal action against harmful plants and crop plant compatibility Seeds of monocotyledonous and dicotyledonous weed plants and crop plants are placed in plastic or wood fiber pots and covered with soil. The compounds of the invention, formulated in the form of wettable powders (WP) or as emulsion concentrates (EC), are then applied onto the surface of the covering soil as aqueous suspension or emulsion with addition of 0.5% additive at a water application rate of 600 l/ha (converted). After the treatment, the pots are placed in a greenhouse and kept under good growth conditions for the trial plants. After about 3 weeks, the effect of the preparations is scored visually in comparison with untreated controls as percentages. For example, 100% activity=the plants have died, 0% activity=like control plants. [table]

Polygonum convolvulus [2] = assay: Pre-emergence herbicidal activity against POLCO; conditions: Fallopia convolvulus, 504 h, dosage 80 g/ha, scored visually after about 3 weeks vs untreated controls
Source text: as §1

Echinochloa crus-galli [3] = assay: Post-emergence herbicidal activity against ECHCG; conditions: Echinochloa crus-galli, 504 h, dosage 320 g/ha, rated visually after about 3 weeks
Experimental: (§2) [table] Seeds of monocotyledonous and dicotyledonous weeds and crop plants are placed in sandy loam in plastic or wood-fiber pots, covered with soil and cultivated in a greenhouse under controlled growth conditions. 2 to 3 weeks after sowing, the test plants are treated at the one-leaf stage. The compounds of the invention, formulated in the form of wettable powders (WP) or as emulsion concentrates (EC), are then sprayed onto the green parts of the plants as aqueous suspension or emulsion with addition of 0.5% additive at a water application rate of 600 l/ha (converted). After the test plants had been kept in the greenhouse under optimum growth conditions for about 3 weeks, the activity of the preparations is rated visually in comparison to untreated controls. For example, 100% activity=the plants have died, 0% activity=like control plants.

[4] = Pre-emergence herbicidal action against harmful plants (summary of the tables); conditions: 504 h, application rate of 0.08 kg of active substance or less per hectare, read-out: herbicidal action, pre-emergence treatment (very good activity)
Source text: as §1, with “plants.” for “plants. [table]”
As shown by the results, compounds according to the invention such as, for example, the compounds No. I-02 and other compounds from the tables (I-05, I-10, I-11, I-12, I-13, I-14, I-15, I-16, I-17, I-18, I-19, I-20, I-21, I-22, I-23, I-24, I-25, I-26, I-27, I-28, I-29) have, when used for pre-emergence treatment, very good activity (80% to 100% herbicidal action) against harmful plants such as Abutilon theophrasti, Alopecurus myosuroides, Amaranthus retroflexus, Avena fatua, Cyperus esculentus, Echinochloa crus-galli, Hordeum murinum, Lolium rigidum, Pharbitis purpurea, Polygonum convolvulus, Setaria viridis, Stellaria media, Veronica persica and Viola tricolor at an application rate of 0.08 kg of active substance or less per hectare.

Stellaria media [5] = assay: Post-emergence herbicidal activity against STEME; conditions: Stellaria media, 504 h, dosage 320 g/ha, rated visually after about 3 weeks
Experimental: as §2

Viola tricolor [6] = assay: Post-emergence herbicidal activity against VIOTR; conditions: Viola tricolor, 504 h, dosage 320 g/ha, rated visually after about 3 weeks
Experimental: as §2

Viola tricolor [7] = assay: Pre-emergence herbicidal activity against VIOTR; conditions: Viola tricolor, 504 h, dosage 80 g/ha, scored visually after about 3 weeks vs untreated controls
Source text: as §1

Setaria viridis [8] = assay: Post-emergence herbicidal activity against SETVI; conditions: Setaria viridis, 504 h, dosage 320 g/ha, rated visually after about 3 weeks
Experimental: as §2

Amaranthus retroflexus = assay: Post-emergence herbicidal activity against AMARE; conditions: Amaranthus retroflexus, 504 h, dosage 320 g/ha, rated visually after about 3 weeks
Experimental: as §2

Polygonum convolvulus [9] = assay: Post-emergence herbicidal activity against POLCO; conditions: Fallopia convolvulus, 504 h, dosage 320 g/ha, rated visually after about 3 weeks
Experimental: as §2

Alopecurus myosuroides = assay: Post-emergence herbicidal activity against ALOMY; conditions: Alopecurus myosuroides, 504 h, dosage 320 g/ha, rated visually after about 3 weeks
Experimental: as §2

Veronica persica = assay: Post-emergence herbicidal activity against VERPE; conditions: Veronica persica, 504 h, dosage 320 g/ha, rated visually after about 3 weeks
Experimental: as §2

Avena fatua [10] = assay: Pre-emergence herbicidal activity against AVEFA; conditions: Avena fatua, 504 h, dosage 80 g/ha, scored visually after about 3 weeks vs untreated controls, read-out: Pre-emergence herbicidal activity in % against AVEVA (AVEFA)
Source text: as §1

Pharbitis purpurea = assay: Post-emergence herbicidal activity against PHBPU; conditions: Ipomoea purpurea, 504 h, dosage 320 g/ha, rated visually after about 3 weeks
Experimental: as §2

Abutilon theophrasti = assay: Post-emergence herbicidal activity against ABUTH; conditions: Abutilon theophrasti, 504 h, dosage 320 g/ha, rated visually after about 3 weeks
Experimental: as §2

Setaria viridis [11] = assay: Pre-emergence herbicidal activity against SETVI; conditions: Setaria viridis, 504 h, dosage 80 g/ha, scored visually after about 3 weeks vs untreated controls
Source text: as §1

Avena fatua [12] = assay: Post-emergence herbicidal activity against AVEFA; conditions: Avena fatua, 504 h, dosage 320 g/ha, rated visually after about 3 weeks
Experimental: as §2

Lolium rigidum [13] = assay: Post-emergence herbicidal activity against LOLRI; conditions: Lolium rigidum, 504 h, dosage 320 g/ha, rated visually after about 3 weeks
Experimental: as §2

Hordeum murinum [14] = assay: Pre-emergence herbicidal activity against HORMU; conditions: Hordeum murinum, 504 h, dosage 80 g/ha
Source text: as §1

Echinochloa crus-galli [15] = assay: Pre-emergence herbicidal activity against ECHCG; conditions: Echinochloa crus-galli, 504 h, dosage 80 g/ha, scored visually after about 3 weeks vs untreated controls
Source text: as §1

Hordeum murinum [16] = assay: Post-emergence herbicidal activity against HORMU; conditions: Hordeum murinum, 504 h, dosage 320 g/ha, rated visually after about 3 weeks
Experimental: as §2

Lolium rigidum [17] = assay: Pre-emergence herbicidal activity against LOLRI; conditions: Lolium rigidum, 504 h, dosage 80 g/ha, scored visually after about 3 weeks vs untreated controls
Source text: as §1

Row | SMILES | pest or weed control at 80 g/ha (Stellaria media [1]) [%] | pest or weed control at 80 g/ha (Polygonum convolvulus [2]) [%] | pest or weed control at 320 g/ha (Echinochloa crus-galli [3]) [%] | pest or weed control at 80 g/ha [4] [%] | pest or weed control at 320 g/ha (Stellaria media [5]) [%] | pest or weed control at 320 g/ha (Viola tricolor [6]) [%] | pest or weed control at 80 g/ha (Viola tricolor [7]) [%] | pest or weed control at 320 g/ha (Setaria viridis [8]) [%] | pest or weed control at 320 g/ha (Amaranthus retroflexus) [%] | pest or weed control at 320 g/ha (Polygonum convolvulus [9]) [%] | pest or weed control at 320 g/ha (Alopecurus myosuroides) [%] | pest or weed control at 320 g/ha (Veronica persica) [%] | pest or weed control at 80 g/ha (Avena fatua [10]) [%] | pest or weed control at 320 g/ha (Pharbitis purpurea) [%] | pest or weed control at 320 g/ha (Abutilon theophrasti) [%] | pest or weed control at 80 g/ha (Setaria viridis [11]) [%] | pest or weed control at 320 g/ha (Avena fatua [12]) [%] | other results
1 | CNC(=O)[C@@H]1C[C@H](NC(=O)C2(C)CC(c3cc(F)cc(F)c3)=NO2)CO1 (relative stereo) [Example I-05, 3-(3,5-difluorophenyl)-5-methyl-N-[cis-5-(methylcarbamoyl)tetrahydrofuran-3-yl]-4H-isoxazole-5-carboxamide] | 80 | 90 | 90 | 80 to 100 | 80 | 80 | 100 | 80 | 80 | 80 | 90 | 80 | 100 | 80 | 80 | 90 | 80 | –
2 | C=C[C@]1(C(=O)N[C@H]2CO[C@@H](C(=O)NNC(=O)OC(C)(C)C)C2)CC(c2cc(F)cc(F)c2)=NO1 (mixture of isomers) [Example I-19, tert-butyl N-[[cis-4-[[(5S)-3-(3,5-difluorophenyl)-5-vinyl-4H-isoxazole-5-carbonyl]amino]tetrahydrofuran-2-carbonyl]amino]carbamate] | 90 | 90 | 90 | 80 to 100 | 90 | 90 | 80 | 90 | 90 | 90 | 90 | 80 | 90 | 90 | 90 | 90 | 90 | pest or weed control at 320 g/ha (Lolium rigidum [13]): 90%; pest or weed control at 80 g/ha (Hordeum murinum [14]): 100%; pest or weed control at 80 g/ha (Echinochloa crus-galli [15]): 80%; pest or weed control at 320 g/ha (Hordeum murinum [16]): 90%; pest or weed control at 80 g/ha (Lolium rigidum [17]): 100%
